Read-outs that look alike come from different tables or passages of the source.
Columns and labels:
human cathepsin K = molecular target: T1, human cathepsin K (Homo sapiens, UniProt P43235); assay: Assay of cathepsin K inhibitory activity in vitro; format: biochemical; details: IC50 against human cathepsin K; substrate Z-Phe-Arg-AMC 10 μM; 25° C.; read-out: Cat-K
T1 sequence (P43235 115-329): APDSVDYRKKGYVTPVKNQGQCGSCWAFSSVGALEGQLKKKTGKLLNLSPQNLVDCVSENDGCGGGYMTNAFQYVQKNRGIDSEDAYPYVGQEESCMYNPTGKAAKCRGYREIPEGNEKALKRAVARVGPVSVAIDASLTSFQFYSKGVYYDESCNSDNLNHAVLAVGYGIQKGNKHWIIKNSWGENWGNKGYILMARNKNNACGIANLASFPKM
Method: Assay Method of Cathepsin K Inhibitory Activity In Vitro
Using 45000-fold diluted cathepsin K solution and 10 μM Z-Phe-Arg-AMC as substrate, the test compound and cathepsin K solution were incubated at 25° C. for 15 min in a 15 μL reaction system according to the optimized experimental condition.

human cathepsin B = human cathepsin B (Homo sapiens, UniProt P07858); assay: Assay of cathepsin B inhibitory activity in vitro; format: biochemical; details: IC50 against human cathepsin B; substrate Z-Phe-Arg-AMC 10 μM; 25° C.; read-out: Cat-B
Method: Assay Method of Cathepsin B Inhibitory Activity In Vitro
0.01 ng/μL was the final concentration of Cathepsin B in the enzyme reaction, and Z-Phe-Arg-AMC with the final concentration of 10 μM was added into the reaction system as substrate, in the reaction system the test compound and enzyme had been incubated at 25° C. for 15 min.

human cathepsin L = human cathepsin L (Homo sapiens, UniProt P07711); assay: Assay of cathepsin L inhibitory activity in vitro; format: biochemical; details: IC50 against human cathepsin L; substrate Z-Phe-Arg-AMC 10 μM; 25° C.; read-out: Cat-L
human cathepsin L, sequence (P07711 114-333): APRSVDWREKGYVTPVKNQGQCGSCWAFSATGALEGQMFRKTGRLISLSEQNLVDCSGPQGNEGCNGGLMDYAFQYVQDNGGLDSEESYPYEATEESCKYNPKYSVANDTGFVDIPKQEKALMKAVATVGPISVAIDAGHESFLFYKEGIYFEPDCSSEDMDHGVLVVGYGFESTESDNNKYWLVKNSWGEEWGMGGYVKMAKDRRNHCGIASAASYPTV
Method: Assay Method of Cathepsin L Inhibitory Activity In Vitro
0.01 ng/μL was the final concentration of Cathepsin L in the enzyme reaction, and Z-Phe-Arg-AMC with the final concentration of 10 μM was added into the reaction system as substrate, in the reaction system the test compound and enzyme had been incubated at 25° C. for 15 min.

human cathepsin S = human cathepsin S (Homo sapiens, UniProt P25774); assay: Assay of cathepsin S inhibitory activity in vitro; format: biochemical; details: IC50 against human cathepsin S; substrate Z-VVR-AMC 20 μM; 25° C.; read-out: Cat-S
human cathepsin S, sequence (P25774 115-331): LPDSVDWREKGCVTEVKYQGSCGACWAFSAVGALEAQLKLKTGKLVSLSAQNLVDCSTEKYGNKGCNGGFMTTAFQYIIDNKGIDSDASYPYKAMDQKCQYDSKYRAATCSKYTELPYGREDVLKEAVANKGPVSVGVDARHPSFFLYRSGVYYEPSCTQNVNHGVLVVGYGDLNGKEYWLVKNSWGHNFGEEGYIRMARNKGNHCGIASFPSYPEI
Method: Assay Method of Cathepsin S Inhibitory Activity In Vitro
0.25 ng/L was the final concentration of Cathepsin S in the enzyme reaction, and Z-VVR-AMC with the final concentration of 20 μM was added into the reaction system as substrate, in the reaction system the test compound and enzyme had been incubated at 25° C. for 15 min.

[1] = Pharmacokinetic test in SD rats (iv and oral gavage), plasma by LC/MS/MS; format: in vivo; details: rat, male SD rats; for AUC(0-inf): read-out: AUCINF h * ng/ml; for AUC(0-t): read-out: AUClast h * ng/ml; for half-life: read-out: T1/2 h (converted); for Vd: read-out: Vss; for bioavailability: po 5 mg/kg vs iv 1 mg/kg
Method: Healthy adult male SD rats were divided into groups with administration of compound by intravenous injection and oral gavage.
2. Preparation of the Test Compound Solution:
A certain amount of the test compound was weighed, and then mixed with 5% DMSO, 10% Kolliphor HS15 and 85% Saline to prepare a clarified solution.
3. Administration and Sample Collection:
All groups were fasted for 12 hours before administering, free drinking, and fed at 3 hours after administration. Each group was administered with test compound by vein intravenous (iv, 1 mg/kg) in the hind foot and oral gavage (po, 5 mg/kg) independently. The blood samples were collected from tail vein at the time point of 0 h, 0.083 h, 0.25 h, 0.5 h, 1 h, 2 h, 4 h, 6 h, 8 h and 24 h after administration and the amount of blood sample collected at each time point was about 200-400 μL. The blood samples collected at each time point were independently placed in K2EDTA anticoagulation tube and preserved in the incubator containing ice packs. The plasma of each blood sample above was separated by centrifugation at 4600 r/min at 4° C. for 5 min in 15 minutes after collecting. The plasma samples were preserved at −80° C. for measuring.
The content of the compound in plasma of rat after administration was determined by LC/MS/MS method.

| IC50 (human cathepsin K) [µM] | IC50 (human cathepsin B) [µM] | IC50 (human cathepsin L) [µM] | IC50 (human cathepsin S) [µM] | Cmax ([1]; iv 1 mg/kg) [ng/mL] | Tmax ([1]; iv 1 mg/kg) [h] | clearance ([1]; iv 1 mg/kg) [mL/min/kg] | AUC(0-inf) ([1]; iv 1 mg/kg) [ng·h/mL] | AUC(0-t) ([1]; iv 1 mg/kg) [ng·h/mL] | half-life ([1]; iv 1 mg/kg) [h] | Vd ([1]; iv 1 mg/kg) [L/kg] | Cmax ([1]; po 5 mg/kg) [ng/mL] | Tmax ([1]; po 5 mg/kg) [h] | bioavailability [1] [%] | AUC(0-inf) ([1]; po 5 mg/kg) [ng·h/mL] | AUC(0-t) ([1]; po 5 mg/kg) [ng·h/mL] | half-life ([1]; po 5 mg/kg) [h] | SMILES |
| --- | --- | --- | --- | --- | --- | --- | --- | --- | --- | --- | --- | --- | --- | --- | --- | --- | --- |
| 0.0018 | 1.4 | > 10 | 2.5 | 1110 | 0.08 | 1.8 | 9230 | 8150 | 7.84 | 1.09 | 1890 | 4.67 | 60.6 | 28400 | 25100 | 6.14 | N#CC1(NC(=O)C2(NC(=O)c3cc4ccc(-c5ccc(-n6cncn6)cc5)cc4o3)CCC(F)(F)CC2)CC1 [Example 12, 6-(4-(1H-1,2,4-triazol-1-yl)phenyl)-N-(1-((1-cyanocyclopropyl)carbamoyl)-4,4-difluorocyclohexyl)benzofuran-2-carboxamide] |
| 0.0022 | 0.806 | > 10 | 2.8 | 500 | 0.083 | 5.14 | 3320 | 3210 | 4.72 | 1.92 | 1380 | 3.33 | 98.6 | 19900 | 18600 | 5.65 | N#CC1(NC(=O)C2(NC(=O)c3cc4ccc(-c5ccc(-n6ccnn6)cc5)cc4o3)CCC(F)(F)CC2)CC1 [Example 18, 6-(4-(1H-1,2,3-triazol-1-yl)phenyl)-N-(1-((1-cyanocyclopropyl)carbamoyl)-4,4-difluorocyclohexyl)benzofuran-2-carboxamide] |
| 0.00069 | 0.44 | > 10 | 1.34 | 382 | 0.78 | 4.13 | 4190 | 3800 | 7.1 | 2.27 | 390 | 4 | 72.1 | 15200 | 14300 | 5.84 | Cc1cc(-c2ccc3cc(C(=O)NC4(C(=O)NC5(C#N)CC5)CCC(F)(F)CC4)oc3c2)ccc1-n1cncn1 [Example 43, N-(1-((1-cyanocyclopropyl)carbamoyl)-4,4-difluorocyclohexyl)-6-(3-methyl-4-(1H-1,2,4-triazol-1-yl)phenyl)benzofuran-2-carboxamide] |
| 0.0014 | 2.5 | > 10 | > 10 | 798 | 0.083 | 2.91 | 5740 | 5470 | 5.9 | 1.2 | 2230 | 2.67 | 75.6 | 21700 | 21100 | 4.66 | N#CC1(NC(=O)C2(NC(=O)c3cc4ccc(-c5ccc(-n6cncn6)c(OC(F)F)c5)cc4o3)CCC(F)(F)CC2)CC1 [Example 53, N-(1-((1-cyanocyclopropyl)carbamoyl)-4,4-difluorocyclohexyl)-6-(3-(difluoromethoxy)-4-(1H-1,2,4-triazol-1-yl)phenyl)benzofuran-2-carboxamide] |
| 0.00072 | 0.33 | 7.1 | 0.74 |  |  |  |  |  |  |  |  |  |  |  |  |  | N#CC1(NC(=O)C2(NC(=O)c3cc4ccc(-c5ccc(C6(O)COC6)cc5)cc4o3)CCCCCC2)CC1 [Example 79] |
| 0.00134 | 2.4 | > 10 | 1.6 |  |  |  |  |  |  |  |  |  |  |  |  |  | CS(=O)(=O)c1ccc(-c2ccc3cc(C(=O)NC4(C(=O)NC5(C#N)CC5)CCCCCC4)oc3c2)cc1 [Example 81] |
| 0.0027 | 0.2 | > 10 | 1.5 |  |  |  |  |  |  |  |  |  |  |  |  |  | CS(=O)(=O)c1ccc(-c2ccc3cc(C(=O)NC4(C(=O)NC5(C#N)CC5)CCCCC4)oc3n2)cc1 [Example 82] |
| 0.0022 | 1.6 | > 10 | > 10 |  |  |  |  |  |  |  |  |  |  |  |  |  | N#CC1(NC(=O)C2(NC(=O)c3cc4ccc(-c5ccc(C6(F)CCS(=O)(=O)CC6)cc5)cc4o3)CCCCC2)CC1 [Example 83] |
| 0.0013 | 0.86 | > 10 | 9.7 |  |  |  |  |  |  |  |  |  |  |  |  |  | N#CC1(NC(=O)C2(NC(=O)c3cc4ccc(-c5ccc(-n6cncn6)cc5)cc4o3)CCCCC2)CC1 [Example 84] |
| 0.00126 | 2.2 | > 10 | 1.5 |  |  |  |  |  |  |  |  |  |  |  |  |  | N#CC1(NC(=O)C2(NC(=O)c3cc4ccc(-c5ccc(-n6cn[nH]c6=O)cc5)cc4o3)CCC(F)(F)CC2)CC1 [Example 85] |
| 0.0011 | 6.8 | > 10 | 4.7 |  |  |  |  |  |  |  |  |  |  |  |  |  | N#CC1(NC(=O)C2(NC(=O)c3cc4ccc(-c5ccc(C6CCS(=O)(=O)CC6)cc5)cc4o3)CCC(F)(F)CC2)CC1 [Example 86] |
| 0.0054 | 0.8 | > 10 | 2.9 |  |  |  |  |  |  |  |  |  |  |  |  |  | N#CC1(NC(=O)C2(NC(=O)c3cc4ccc(-c5ccc(N6CCNC6=O)cc5)cc4o3)CCC(F)(F)CC2)CC1 [Example 88] |
| 0.0015 | 1.2 | > 10 | 0.17 |  |  |  |  |  |  |  |  |  |  |  |  |  | N#CC1(NC(=O)C2(NC(=O)c3cc4ccc(-c5ccc(C(O)C(N)=O)cc5)cc4o3)CCC(F)(F)CC2)CC1 (centres unmarked) [Example 90] |
| 0.0013 | 2.5 | > 10 | > 10 |  |  |  |  |  |  |  |  |  |  |  |  |  | N#CC1(NC(=O)C2(NC(=O)c3cc4ccc(-c5ccc6c(c5)OCO6)cc4o3)CCC(F)(F)CC2)CC1 [Example 91] |
| 0.0014 | 6.4 | > 10 | 2.3 |  |  |  |  |  |  |  |  |  |  |  |  |  | N#CC1(NC(=O)C2(NC(=O)c3cc4ccc(-c5ccc(C(=O)N6CCOCC6)cc5)cc4o3)CCC(F)(F)CC2)CC1 [Example 92] |
| 0.00296 | 4.3 | > 10 | > 10 |  |  |  |  |  |  |  |  |  |  |  |  |  | CC1(COc2ccc(-c3ccc4cc(C(=O)NC5(C(=O)NC6(C#N)CC6)CCC(F)(F)CC5)oc4c3)cc2)COC1 [Example 93] |
| 0.0024 | 4 | > 10 | 6.5 |  |  |  |  |  |  |  |  |  |  |  |  |  | COc1cc(-c2ccc3cc(C(=O)NC4(C(=O)NC5(C#N)CC5)CCC(F)(F)CC4)oc3c2)ccc1OC(F)F [Example 94] |
| 0.00053 | 0.711 | > 10 | 2.15 |  |  |  |  |  |  |  |  |  |  |  |  |  | CS(=O)(=O)Nc1ccc(-c2ccc3cc(C(=O)NC4(C(=O)NC5(C#N)CC5)CCC(F)(F)CC4)oc3c2)cc1 [Example 96] |
| 0.00137 | 0.355 | > 10 | 2.29 |  |  |  |  |  |  |  |  |  |  |  |  |  | COc1cc(-c2ccc3cc(C(=O)NC4(C(=O)NC5(C#N)CC5)CCC(F)(F)CC4)oc3c2)ccc1S(C)(=O)=O [Example 97] |

From patent US10494364B2, “Cathepsin K inhibitors and application thereof” (SUNSHINE LAKE PHARMA CO., LTD., priority 2015, dated 2019)
